For seven compounds, IC50 results are on record in US10351552B2, “Bicyclic antiparasitic compounds” (MediSynergies, LLC, priority 2017, dated 2019).

SMILES strings stand for the structures.

The subject of this assay is T. brucei brucei clone 427-221a (bloodstream forms). Kind of assay: T. brucei brucei growth inhibition assay. The conditions noted are these: Trypanosoma brucei, 40 hours at 37° C., CellTiter-Glo ATP-bioluminescence. It counts as cell-based. As for the experimental part: The growth inhibition assay for T. brucei brucei was conducted as described previously by Z. B. Mackey, et al (Kenny K. H. Ang, Joseline Ratnam, Jiri Gut, Jennifer Legac, Elizabeth Hansell, Zachary B. Mackey, Katarzyna M. Skrzypczynska, Anjan Debnath, Juan C. Engel, Philip J. Rosenthal, James H. McKerrow, Michelle R. Arkin, Adam R. Renslo (2011) “Mining a Cathepsin Inhibitor Library for New Antiparasitic Drug Leads”, PLoS Neglected Tropical Diseases, 5(5):e1023). Bloodstream forms of the monomorphic T. brucei brucei clone 427-221a were grown in complete HMI-9 medium containing 10% FBS, 10% Serum Plus medium (Sigma Inc., St. Louis, Mo., USA), 50 U/mL penicillin and […] (Invitrogen) at 37° C. under a humidified atmosphere and 5% CO2. Inhibitor stocks were prepared in 100% DMSO and screened at […] for percent inhibition values or serially diluted from […] in 10% DMSO for IC50 determinations. […] of diluted parasites ([…]) in sterile Greiner 96-well flat white opaque culture plates such that the final DMSO concentration was 0.5%. The 0% inhibition control wells contained 0.5% DMSO while 100% inhibition control wells contained 50 mM thimerosal (Sigma). After compound addition, plates were incubated for 40 hours at 37° C. At the end of the incubation period, […] of CellTiter-Glo™ reagent (Promega Inc., Madison, Wis., USA) was added to each well and plates were placed on an orbital shaker at room temperature for 2 min to induce lysis. After an additional 10 min of incubation without shaking to stabilize the signal, the ATP-bioluminescence of each well was determined using an Analyst HT plate reader (Molecular Devices, Sunnyvale, Calif., USA). Raw values were converted to log 10 and percentage inhibition calculated relative to the controls. IC50 curve fittings were performed with Prism 4 software as above. Pentamidine was used as a comparator in the assay.
For the compound `CN(C)CCCC1(c2ccc(F)cc2)OCc2cc(-c3cccc4[nH]ccc34)ccc21` (stereo not shown) [Example 1, 3-[1-(4-fluorophenyl)-5-(1H-indol-4-yl)-1,3-dihydro-2-benzofuran-1-yl]-N,N-dimethylpropan-1-amine], inhibition was half-maximal at 1500 nM (IC50).
With `CN(C)CCCC1(c2ccc(F)cc2)OCc2cc(-c3ccc4ocnc4c3)ccc21` (stereo not shown) [Example 2, 3-[1-(4-flurophenyl)-5-(1,3-benzoxazol-5-yl)-1,3-dihydro-2-benzofuran-1-yl]-N,N-dimethylpropan-1-amine] the figure was 410 nM; with `CN(C)CCCC1(c2ccc(F)cc2)OCc2cc(-c3ccc4scnc4c3)ccc21` (stereo not shown) [Example 3, 3-[1-(4-fluorophenyl)-5-(1,3-benzothiazol-5-yl)-1,3-dihydro-2-benzofuran-1-yl]-N,N-dimethylpropan-1-amine], 1200 nM; with `CN(C)CCCC1(c2ccc(F)cc2)OCc2cc(-c3cc4ccccc4s3)ccc21` (stereo not shown) [Example 4], 510 nM.
With `CN(C)CCCC1(c2ccc(F)cc2)OCc2cc(-c3cnc4ccccc4c3)ccc21` (stereo not shown) [Example 6, 3-[1-(4-fluorophenyl)]-[5-(quinolin-3-yl)-1,3-dihydro-2-benzofuran-1-yl]-N,N-dimethylpropan-1-amine] the figure was 3000 nM; with `CN(C)CCCC1(c2ccc(F)cc2)OCc2cc(-c3cncc4ccccc34)ccc21` (stereo not shown) [Example 7, 3-[1-(4-fluorophenyl)]-[5-(isoquinolin-4-yl)-1,3-dihydro-2-benzofuran-1-yl]-N,N-dimethylpropan-1-amine], 1000 nM; with `Cc1ccc2oc(-c3ccc4c(c3)COC4(CCCN(C)C)c3ccc(F)cc3)nc2c1` (stereo not shown) [Example 8, 3-[1-(4-fluorophenyl)-5-(5-methyl-1,3-benzoxazol-2-yl)-1,3-dihydro-2-benzofuran-1-yl]-N,N-dimethylpropan-1-amine], 110 nM.

The term IC50 denotes the concentration that gives 50% inhibition. High values mean a need for much substance, low ones inhibition by little substance.
